# Source: PMC4792161, “A novel pyrazole derivative protects from ovariectomy-induced osteoporosis through the inhibition of NADPH oxidase” (Scientific Reports, 2016)
# Counter-ions that a name gives are not always drawn. Marks after values point to notes of the source that are not given here.
# Columns and labels:
# [1] = tested on: OVX-induced osteoporotic ddY mice; test: Tibia histopathology-histomorphometry in OVX mice; type: in vivo
# glucose oxidase = glucose oxidase (Aspergillus niger, UniProt P13006); test: Glucose oxidase assay (lucigenin); type: biochemical
# Protocol: Glucose oxidase activity was measured by lucigenin. Reaction mixtures contained 0.75 mM glucose, 0.25 mg/ml glucose oxidase, and 0.4 mM lucigenin with the indicated inhibitor (0–20μM). Luminescence was measured over 30 min at 37 °C with luminometor (DTX800, Beckman coulter).
# [2] = tested on: OVX-induced osteoporotic ddY mice; test: Number of OBs in cortical bone lining of OVX mice (H&E); settings: mouse, in vivo
# Protocol: Sham OVX Risedronate 20 mg/kg 10 mg/kg 5 mg/kg 2.5 mg/kg20.0mg/kg 10.0mg/kg 5.0mg/kg 2.5mg/kg […]
# Supplementary Figure S8. […] CB number was […]
# counted in osteoblastic lining in cortical bone with H&E staining. a p<0.005 and b p<0.005 as compared with OVX and Risendronate, respectively, c p<0.005 and d p<0.005 as compared with 20
# BMMs = test: Phagocytosis assay, FITC-zymosan uptake; type: cell-based, C57BL/6 mice; settings: pretreated 1 hour
# Protocol: After the incubations, cells were washed three times with PBS, and the quantities of internalized fluorescent particles were determined by flow cytometry. FITC-zymosan uptake was quantified as mean fluorescence intensity (MFI).
# Supplementary Figure S3. (A) Ewha-18278 compounds can not directly scavenge superoxide or other reactive species in vitro. ROS (H2O2) measured with lucigenin. Reaction mixtures contained 1 […]
# Luminescence measured over 30 min at 37
# °C with luminometor (Gloma X luminometor, Turner BioSystem). […]
# the phagocytosis of zymosan. […]
# incubated with FITC-zymosan particles, and internalized fluorescence was measured by flow cytometry. The data are presented as the MFI of internalized FITC. Data represent mean ± S.D. […]
# Pre-OCs = test: OC fusion assay; type: cell-based, C57BL/6 mice; settings: 10 μM, 24 hours
# Protocol: Cells were stained for TRAP using a leukocyte acid phosphatase cytochemistry kit (Sigma-Aldrich, St. Louis, MO, USA) according to the manufacturer’s instructions. […]
# Scale bar, 500 μm. (C,D) Mature OCs were generated with M-CSF and RANKL, cells were seeded onto dentine discs and further cultured with […]
# Cells were stained with hematoxylin for visualization of pit formation (C). The area of resorption pits were measured with Image-Pro Plus 4.5 (D). Scale bar, 500
# μm. Data represent mean ± S.D., n.s., not significant. […]
# [3] = tested on: OVX-induced osteoporotic ddY mice; test: Femur weights (wet, dry, ash) in OVX mice; type: in vivo
# Protocol: The right sides of femur and tibia were weighed and then dried at 120 °C for 8 hours. The dried bones were carbonized at 800 °C for 6 hours in a furnace (Daihan Scientific, Korea) to detect ash absolute weights, after measurement of BMD and failure load. To reduce the individual body weight differences, the relative weight (%) was calculated using body weight at sacrifice and absolute weight as [Relative bone weights = (Absolute bone weight/Body weight at sacrifice) ×100]. In addition, ashed bones were ground and dissolved in nitric acid. In diluted solution, Ca and P contents were calculated (mg/g bone) using an orthocresolphthalein complex and enzyme methods, respectively. The Ca/P ratio (%) was calculated as (Tibia Ca contents/Tibia P contents) ×100.
# [4] = 2.5 mg/kg oral once daily 28 days
# [5] = 5 mg/kg oral once daily 28 days
# [6] = 10 mg/kg oral once daily 28 days
# [7] = 20 mg/kg oral once daily 28 days
# Chain of glucose oxidase (P13006 17-605, species assumed): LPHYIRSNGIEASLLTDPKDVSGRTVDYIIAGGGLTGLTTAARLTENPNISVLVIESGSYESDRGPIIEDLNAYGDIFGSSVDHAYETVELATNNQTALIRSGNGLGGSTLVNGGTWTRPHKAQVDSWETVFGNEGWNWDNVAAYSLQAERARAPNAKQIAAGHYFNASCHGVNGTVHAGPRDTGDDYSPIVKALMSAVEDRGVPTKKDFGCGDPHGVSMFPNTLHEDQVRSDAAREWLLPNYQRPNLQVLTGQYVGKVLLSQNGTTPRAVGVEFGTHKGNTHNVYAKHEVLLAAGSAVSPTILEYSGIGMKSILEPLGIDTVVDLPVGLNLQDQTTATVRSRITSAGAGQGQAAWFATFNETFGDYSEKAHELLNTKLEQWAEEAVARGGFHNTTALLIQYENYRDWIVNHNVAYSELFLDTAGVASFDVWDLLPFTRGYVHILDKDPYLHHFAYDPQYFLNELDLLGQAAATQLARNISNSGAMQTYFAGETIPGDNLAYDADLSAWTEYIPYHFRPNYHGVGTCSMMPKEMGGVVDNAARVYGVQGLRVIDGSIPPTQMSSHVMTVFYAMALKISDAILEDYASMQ
structure (smiles),measurement,setting,value
"CCCc1c(-c2ccccc2)nn(-c2ccccn2)c1O [Ewha-18278, 3-phenyl-1-(pyridin-2-yl)-4-propyl-1H-5-hydroxypyrazole HCl]",BV/TV (trabecular bone volume),[1]; [4],19.04 ± 3.10 ^a %
same,Ct.Th (cortical bone thickness),[1]; [4],122.04 ± 11.96 ^a μm
same,"N.OC/BS (osteoclast cell number, N/epiphyseal)",[1]; [4],14.13 ± 3.44 ^a numbers
same,"Tb.N (trabecular bone number, N/epiphyseal)",[1]; [4],8.63 ± 1.60 ^a numbers
same,Tb.Th (trabecular bone thickness),[1]; [4],34.89 ± 5.16 ^a μm
same,BV/TV (trabecular bone volume),[1]; [5],29.39 ± 2.41 ^bc %
same,Ct.Th (cortical bone thickness),[1]; [5],137.51 ± 10.96 ^ac μm
same,"Tb.N (trabecular bone number, N/epiphyseal)",[1]; [5],12.50 ± 1.31 ^ac numbers
same,Tb.Th (trabecular bone thickness),[1]; [5],48.34 ± 6.87 ^ac μm
same,BV/TV (trabecular bone volume),[1]; [6],33.36 ± 4.35 ^c %
same,Ct.Th (cortical bone thickness),[1]; [6],182.11 ± 12.48 ^c μm
same,"N.OC/BS (osteoclast cell number, N/epiphyseal)",[1]; [6],8.13 ± 2.23 ^ac numbers
same,"Tb.N (trabecular bone number, N/epiphyseal)",[1]; [6],15.00 ± 2.00 ^ac numbers
same,Tb.Th (trabecular bone thickness),[1]; [6],53.36 ± 5.94 ^ac μm
same,BV/TV (trabecular bone volume),[1]; [7],33.78 ± 3.47 ^c %
same,Ct.Th (cortical bone thickness),[1]; [7],194.28 ± 15.50 ^c μm
same,"N.OC/BS (osteoclast cell number, N/epiphyseal)",[1]; [7],6.88 ± 2.36 ^ac numbers
same,"Tb.N (trabecular bone number, N/epiphyseal)",[1]; [7],17.13 ± 1.81 ^c numbers
same,Tb.Th (trabecular bone thickness),[1]; [7],55.98 ± 7.15 ^ac μm
same,inhibitory activity on glucose oxidase,glucose oxidase,no inhibitory activities
same,number of OBs in tibia and femur compared to OVX control mice,[2],increased
same,phagocytosis of FITC-zymosan (MFI) vs DMSO,BMMs,n.s.
same,fusion of OCs,Pre-OCs,did not affect
same,"Femur absolute weights, Ash",[3]; [4],0.030 g
same,"Femur absolute weights, Dry",[3]; [4],0.065 g
same,"Femur absolute weights, Wet",[3]; [4],0.097 g
same,"Femur absolute weights, Ash",[3]; [5],0.037 g
same,"Femur absolute weights, Dry",[3]; [5],0.065 g
same,"Femur absolute weights, Wet",[3]; [5],0.093 g
same,"Femur absolute weights, Ash",[3]; [6],0.038 g
same,"Femur absolute weights, Dry",[3]; [6],0.067 g
same,"Femur absolute weights, Wet",[3]; [6],0.096 g
same,"Femur absolute weights, Ash",[3]; [7],0.038 g
same,"Femur absolute weights, Dry",[3]; [7],0.067 g
same,"Femur absolute weights, Wet",[3]; [7],0.096 g
